Test [1] deals with NAMPT (human, recombinant, C-terminally His-tagged) (Homo sapiens, UniProt P43490). In words: Time-Resolved Fluorescence Resonance Energy Transfer (TR-FRET) Binding Assay of NAMPT. The settings on record: 6.8 nM NAMPT, 200 nM probe, equilibrated 3 hours, absence of substrates. Here is the method:
Determination of the utility of compounds having Formula (I) as binders to and inhibitors of NAMPT was performed using Time-Resolved Fluorescence Resonance Energy Transfer (TR-FRET) binding assays.
Time-Resolved Fluorescence Resonance Energy Transfer (TR-FRET) Binding Assay of NAMPT
Test compounds were serially diluted (typically 11 half log dilutions) in neat DMSO to 50× final concentrations prior to dilution with assay buffer (50 mM HEPES (NaOH), pH 7.5, 100 mM NaCl, 10 mM MgCl2, 1 mM DTT, 1% Glycerol) to 3× and 6% DMSO. Six μL were transferred to 384-well low-volume plates (Owens Corning #3673). To this, 12 μL of a 1.5× solution containing enzyme, probe and antibody were added. Final concentrations in the 18 μL, reactions were 1× assay buffer, 2% DMSO, 6.8 nM NAMPT (human, recombinant, C-terminally His-tagged), 200 nM probe (a potent nicotinamide-competitive inhibitor conjugated to Oregon Green 488) and 1 nM Tb-anti-His antibody (Invitrogen #PV5895). Reactions were equilibrated at room temperature for 3 hours prior to reading on an Envision multi-label plate reader (Perkin Elmer; Ex=337 nm, Em=520 and 495 nm). Time-resolved FRET ratios (Em520/Em495) were normalized to controls, plotted as a function of compound concentration and fit with the four-parameter logistic equation to determine IC50s.
(In general: In TR-FRET formats the signal depends on donor and acceptor labels being close together.)

Another test addresses NAMPT (Homo sapiens, UniProt P43490). The test can be described thus: Time-Resolved Fluorescence Resonance Energy Transfer (TR-FRET) Binding Assay of NAMPT with PRPP. The following applies: 2 nM NAMPT, 2 nM probe, 200 uM PRPP and 2.5 mM ATP, equilibrated 16 hours. Here is the method: Time-Resolved Fluorescence Resonance Energy Transfer (TR-FRET) Binding Assay of NAMPT with PRPP
Compound handling and data processing were identical to the assay in the absence of substrates (above). Final concentrations were 1× assay buffer, 2% DMSO, 2 nM NAMPT, 2 nM probe, 1 nM Tb-anti-His antibody (Invitrogen #PV5895), 200 uM PRPP and 2.5 mM ATP. Reactions were equilibrated for 16 hours prior to measurement to allow for potential enzymatic modification of test compounds.

Broadly, the IC50 is the concentration at which inhibition is half-maximal.

NAMPT (human, recombinant, C-terminally His-tagged), sequence (P43490 whole entry): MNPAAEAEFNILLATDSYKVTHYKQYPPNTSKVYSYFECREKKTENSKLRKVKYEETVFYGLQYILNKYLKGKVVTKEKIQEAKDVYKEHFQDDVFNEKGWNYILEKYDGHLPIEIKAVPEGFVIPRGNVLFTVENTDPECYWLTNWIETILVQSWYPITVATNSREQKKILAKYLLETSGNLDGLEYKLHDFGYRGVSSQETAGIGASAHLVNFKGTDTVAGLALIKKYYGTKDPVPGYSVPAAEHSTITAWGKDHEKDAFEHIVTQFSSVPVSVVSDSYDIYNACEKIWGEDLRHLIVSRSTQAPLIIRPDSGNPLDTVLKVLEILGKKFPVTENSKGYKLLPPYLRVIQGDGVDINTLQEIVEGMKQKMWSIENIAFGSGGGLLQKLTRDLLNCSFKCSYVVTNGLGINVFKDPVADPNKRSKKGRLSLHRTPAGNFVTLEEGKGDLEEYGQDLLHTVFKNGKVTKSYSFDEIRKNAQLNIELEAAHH
NAMPT, sequence (P43490 whole entry): as above

`COCCOCC(=O)N1CCC(Oc2ccc(NC(=O)C3CN(c4cccnc4)C3)cc2)CC1` [Example 48, N-[4-({1-[(2-methoxyethoxy)acetyl]piperidin-4-yl}oxy)phenyl]-1-(pyridin-3-yl)azetidine-3-carboxamide]: the IC50 in test [1] amounted to 112 nM; on NAMPT it was 0.861 nM.

As to `O=C(Nc1ccc(OC2CCN(C(=O)C3CCCCC3)CC2)cc1)C1CN(c2cccnc2)C1` [Example 49, N-(4-{[1-(cyclohexylcarbonyl)piperidin-4-yl]oxy}phenyl)-1-(pyridin-3-yl)azetidine-3-carboxamide], the IC50 is 66.1 nM in test [1] and 1.02 nM on NAMPT.

In the case of `O=C(Nc1ccc(OC2CCN(C(=O)CC3CCCCC3)CC2)cc1)C1CN(c2cccnc2)C1` [Example 50, N-(4-{[1-(cyclohexylacetyl)piperidin-4-yl]oxy}phenyl)-1-(pyridin-3-yl)azetidine-3-carboxamide], the values for the IC50 (in test [1]; at NAMPT) were 63.5 nM and 1.1 nM, respectively.

As to `O=C(Nc1ccc(OC2CCN(C(=O)CCC(F)(F)F)CC2)cc1)C1CN(c2cccnc2)C1` [Example 51, 1-(pyridin-3-yl)-N-(4-{[1-(4,4,4-trifluorobutanoyl)piperidin-4-yl]oxy}phenyl)azetidine-3-carboxamide], the IC50 came to 109 nM in test [1] and 1.17 nM on NAMPT.

With `O=C(Nc1ccc(OC2CCN(C(=O)C3CCCC3)CC2)cc1)C1CN(c2cccnc2)C1` [Example 52, N-(4-{[1-(cyclopentylcarbonyl)piperidin-4-yl]oxy}phenyl)-1-(pyridin-3-yl)azetidine-3-carboxamide], the IC50 was 51 nM in test [1] and 0.696 nM at NAMPT.

Turning to `CC1(C(=O)N2CCC(Oc3ccc(NC(=O)C4CN(c5cccnc5)C4)cc3)CC2)CCCCC1` [Example 53, N-[4-({1-[(1-methylcyclohexyl)carbonyl]piperidin-4-yl}oxy)phenyl]-1-(pyridin-3-yl)azetidine-3-carboxamide], the IC50 in test [1] was determined as 25.6 nM; at NAMPT, 0.689 nM.

In the case of `O=C(Nc1ccc(OC2CCN(C(=O)c3ccoc3)CC2)cc1)C1CN(c2cccnc2)C1` [Example 54, N-(4-{[1-(furan-3-ylcarbonyl)piperidin-4-yl]oxy}phenyl)-1-(pyridin-3-yl)azetidine-3-carboxamide], the IC50 turned out to be 72.1 nM in test [1] and 0.806 nM at NAMPT.

As for `O=C(Nc1ccc(OC2CCN(C(=O)CC(F)(F)F)CC2)cc1)C1CN(c2cccnc2)C1` [Example 55, 1-(pyridin-3-yl)-N-(4-{[1-(3,3,3-trifluoropropanoyl)piperidin-4-yl]oxy}phenyl)azetidine-3-carboxamide], the values for the IC50 (in test [1]; on NAMPT) were 168 nM and 2.22 nM, respectively.

With `CC(=O)N1CCC(Oc2ccc(NC(=O)C3CN(c4cccnc4)C3)cc2)CC1` [Example 56, N-{4-[(1-acetylpiperidin-4-yl)oxy]phenyl}-1-(pyridin-3-yl)azetidine-3-carboxamide], the IC50 in test [1] turned out to be 360 nM; on NAMPT it was 0.812 nM.

`COCC(=O)N1CCC(Oc2ccc(NC(=O)C3CN(c4cccnc4)C3)cc2)CC1` [Example 57, N-(4-{[1-(methoxyacetyl)piperidin-4-yl]oxy}phenyl)-1-(pyridin-3-yl)azetidine-3-carboxamide]: the results for the IC50 (in test [1]; at NAMPT) were 180 nM and 1.07 nM, respectively.

`O=C(Nc1ccc(OC2CCN(C(=O)c3ccsc3)CC2)cc1)C1CN(c2cccnc2)C1` [Example 58, 1-(pyridin-3-yl)-N-(4-{[1-(thiophen-3-ylcarbonyl)piperidin-4-yl]oxy}phenyl)azetidine-3-carboxamide]: the IC50 came to 59.5 nM in test [1] and 0.683 nM on NAMPT.

In the case of `Cc1ccsc1C(=O)N1CCC(Oc2ccc(NC(=O)C3CN(c4cccnc4)C3)cc2)CC1` [Example 59, N-[4-({1-[(3-methylthiophen-2-yl)carbonyl]piperidin-4-yl}oxy)phenyl]-1-(pyridin-3-yl)azetidine-3-carboxamide], the IC50 in test [1] stood at 27.9 nM; on NAMPT it was 0.606 nM.

In the case of `O=C(Nc1ccc(OC2CCN(C(=O)CN3CCOCC3)CC2)cc1)C1CN(c2cccnc2)C1` [Example 60, N-(4-{[1-(morpholin-4-ylacetyl)piperidin-4-yl]oxy}phenyl)-1-(pyridin-3-yl)azetidine-3-carboxamide], the concentration for half-maximal inhibition (IC50) amounted to 150 nM in test [1] and 1.01 nM at NAMPT.

On to `O=C(Nc1ccc(OC2CCN(C(=O)c3cccs3)CC2)cc1)C1CN(c2cccnc2)C1` [Example 61, 1-(pyridin-3-yl)-N-(4-{[1-(thiophen-2-ylcarbonyl)piperidin-4-yl]oxy}phenyl)azetidine-3-carboxamide], for which the figures for the half-inhibitory concentration (IC50) (in test [1]; at NAMPT) were 33.7 nM and 0.675 nM, respectively.

Take `Cc1ccc(C(=O)N2CCC(Oc3ccc(NC(=O)C4CN(c5cccnc5)C4)cc3)CC2)s1` [Example 62, N-[4-({1-[(5-methylthiophen-2-yl)carbonyl]piperidin-4-yl}oxy)phenyl]-1-(pyridin-3-yl)azetidine-3-carboxamide]: the IC50 in test [1] is 41.6 nM; at NAMPT, 0.666 nM.

`O=C(Nc1ccc(OC2CCN(C(=O)c3ccco3)CC2)cc1)C1CN(c2cccnc2)C1` [Example 63, N-(4-{[1-(furan-2-ylcarbonyl)piperidin-4-yl]oxy}phenyl)-1-(pyridin-3-yl)azetidine-3-carboxamide]: the IC50 in test [1] is 52.7 nM; on NAMPT it was 0.514 nM.

As for `Cn1cccc1C(=O)N1CCC(Oc2ccc(NC(=O)C3CN(c4cccnc4)C3)cc2)CC1` [Example 64, N-[4-({1-[(1-methyl-1H-pyrrol-2-yl)carbonyl]piperidin-4-yl}oxy)phenyl]-1-(pyridin-3-yl)azetidine-3-carboxamide], the IC50 in test [1] turned out to be 55.2 nM; at NAMPT, 0.927 nM.

Regarding `CCC(=O)N1CCC(Oc2ccc(NC(=O)C3CN(c4cccnc4)C3)cc2)CC1` [Example 65, N-{4-[(1-propanoylpiperidin-4-yl)oxy]phenyl}-1-(pyridin-3-yl)azetidine-3-carboxamide], the IC50 was found to be 121 nM in test [1] and 0.704 nM on NAMPT.

Turning to `CC1(C(=O)N2CCC(Oc3ccc(NC(=O)C4CN(c5cccnc5)C4)cc3)CC2)CC1` [Example 66, N-[4-({1-[(1-methylcyclopropyl)carbonyl]piperidin-4-yl}oxy)phenyl]-1-(pyridin-3-yl)azetidine-3-carboxamide], the IC50 in test [1] was found to be 56.6 nM; on NAMPT, 0.535 nM.

Consider `CN(C)CCC(=O)N1CCC(Oc2ccc(NC(=O)C3CN(c4cccnc4)C3)cc2)CC1` [Example 67, N-(4-{[1-(N,N-dimethyl-beta-alanyl)piperidin-4-yl]oxy}phenyl)-1-(pyridin-3-yl)azetidine-3-carboxamide], for which the half-inhibitory concentration (IC50) in test [1] stood at 452 nM; on NAMPT it was 0.497 nM.

On to `O=C(Nc1ccc(OC2CCN(C(=O)c3nccs3)CC2)cc1)C1CN(c2cccnc2)C1` [Example 68, 1-(pyridin-3-yl)-N-(4-{[1-(1,3-thiazol-2-ylcarbonyl)piperidin-4-yl]oxy}phenyl)azetidine-3-carboxamide], for which the IC50 worked out at 80.6 nM in test [1] and 0.569 nM on NAMPT.

Take `O=C(Nc1ccc(OC2CCN(C(=O)CC3CCCC3)CC2)cc1)C1CN(c2cccnc2)C1` [Example 69, N-(4-{[1-(cyclopentylacetyl)piperidin-4-yl]oxy}phenyl)-1-(pyridin-3-yl)azetidine-3-carboxamide]: the IC50 in test [1] was determined as 68.6 nM; at NAMPT, 0.918 nM.

On to `CC(C)C(C)C(=O)N1CCC(Oc2ccc(NC(=O)C3CN(c4cccnc4)C3)cc2)CC1` (stereo not shown) [Example 70, N-(4-{[1-(2,3-dimethylbutanoyl)piperidin-4-yl]oxy}phenyl)-1-(pyridin-3-yl)azetidine-3-carboxamide], for which the concentration for half-maximal inhibition (IC50) in test [1] was 35.7 nM; at NAMPT it was 0.742 nM.

For `Cc1ncccc1N1CC(C(=O)Nc2ccc(C3CCN(C(=O)C(C)(C)O)CC3)cc2)C1` [Example 71, N-{4-[1-(2-hydroxy-2-methylpropanoyl)piperidin-4-yl]phenyl}-1-(2-methylpyridin-3-yl)azetidine-3-carboxamide], the values for the IC50 (in test [1]; at NAMPT) were 41.2 nM and 14.6 nM, respectively.

Turning to `Cc1ccncc1N1CC(C(=O)Nc2ccc(C3CCN(C(=O)C(C)(C)O)CC3)cc2)C1` [Example 72, N-{4-[1-(2-hydroxy-2-methylpropanoyl)piperidin-4-yl]phenyl}-1-(4-methylpyridin-3-yl)azetidine-3-carboxamide], the values for the IC50 (in test [1]; on NAMPT) were 6.54 nM and 7.34 nM, respectively.

As to `COc1ncccc1N1CC(C(=O)Nc2ccc(C3CCN(C(=O)C(C)(C)O)CC3)cc2)C1` [Example 73, N-{4-[1-(2-hydroxy-2-methylpropanoyl)piperidin-4-yl]phenyl}-1-(2-methoxypyridin-3-yl)azetidine-3-carboxamide], the IC50 in test [1] amounted to 224 nM; on NAMPT, 71.1 nM.

Values taken from patent US8975398B2, “NAMPT inhibitors” (AbbVie Inc., priority 2012, dated 2015).
